Measurements as given in patent publication US20150306108A1, “COMPOSITIONS OF ALDH1A1 INHIBITORS AND METHODS OF USE IN TREATING CANCER” (Indiana University Research & Technology Corporation, priority 2014, published 2015).

How the values were obtained:
[1] = biological target: T1, ALDH5A1 (Homo sapiens, UniProt P51649); test: ALDH5A1 selectivity assay; format: biochemical; conditions: 20 μM compound
T1 construct: The full length cDNA for human ALDH4A1 and ALDH5A1 were generously provided by Dania Mochly-Rosen; inferred from nickel-NTA purification and the pTrcHis-Topo plasmid; made in house; host or cells: bacterial host inferred from the pTrcHis-Topo plasmid and ampicillin medium
T1 sequence (P51649 48-535): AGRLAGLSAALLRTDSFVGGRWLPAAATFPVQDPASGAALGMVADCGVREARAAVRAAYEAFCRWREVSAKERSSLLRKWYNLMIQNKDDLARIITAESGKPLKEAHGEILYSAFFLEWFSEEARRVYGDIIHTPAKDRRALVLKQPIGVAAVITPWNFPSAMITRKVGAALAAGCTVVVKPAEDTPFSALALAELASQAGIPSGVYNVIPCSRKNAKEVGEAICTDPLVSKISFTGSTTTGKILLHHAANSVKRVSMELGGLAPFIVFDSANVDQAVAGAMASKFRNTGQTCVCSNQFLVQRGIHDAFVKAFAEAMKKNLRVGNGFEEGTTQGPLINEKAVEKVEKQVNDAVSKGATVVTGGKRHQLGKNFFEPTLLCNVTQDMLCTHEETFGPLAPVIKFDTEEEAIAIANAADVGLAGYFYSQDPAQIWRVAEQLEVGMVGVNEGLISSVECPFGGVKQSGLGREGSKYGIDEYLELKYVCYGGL
Description: (§1) ALDH1A1, ALDH1A2, ALDH1A3, ALDH1B1, ALDH2, and ALDH3A1 were produced and purified as previously described. The ALDH1A1 protein used for the ALDH1A1-CM026 crystal contained an Asn-to-Ser SNP at residue 121. Unless where noted otherwise, ALDH1A1 WT protein was used for all aldehyde oxidation assays and for the ALDH1A1-CM053 structure. The full length cDNA for human ALDH4A1 and ALDH5A1 were generously provided by Dania Mochly-Rosen. ALDH4A1 was subcloned into the pET-28a expression plasmid and ALDH5A1 was in pTrcHis-Topo. The carboxyl terminal ALDH domain of rat ALDH1L1 was generously provided by Sergey Krupenko in the pRSET expression plasmid. ALDH1L1, ALDH4A1, and ALDH5A1 were expressed and purified as previously described for ALDH3A1^36 with the following modifications: 1) for ALDH1L1 and ALDH5A1 the medium contained 100 μg/mL ampicillin, 2) cells were lysed via 3 passages through a microfluidizer (DivTech Equipment), and 3) a single passage on a nickel-NTA column was used for purification, without the second Q-sepharose column used to purify ALDH3A1. Purified enzymes used for kinetics were stored at −80° C. ALDH1A1 used for crystallization was stored at −20° C. in a 50% (v/v) solution with glycerol and dialyzed against 10 mM Na^+-ACES pH 6.6 and 1 mM dithiothreitol at 4° C.

[2] = biological target: T2, ALDH4A1 (Homo sapiens, UniProt P30038); test: ALDH4A1 selectivity assay; format: biochemical; conditions: 20 μM compound
T2 construct: The full length cDNA for human ALDH4A1 and ALDH5A1 were generously provided by Dania Mochly-Rosen; inferred from nickel-NTA purification and the pET-28a plasmid; made in house; host or cells: bacterial host inferred from the pET-28a plasmid
T2 sequence (P30038 25-563): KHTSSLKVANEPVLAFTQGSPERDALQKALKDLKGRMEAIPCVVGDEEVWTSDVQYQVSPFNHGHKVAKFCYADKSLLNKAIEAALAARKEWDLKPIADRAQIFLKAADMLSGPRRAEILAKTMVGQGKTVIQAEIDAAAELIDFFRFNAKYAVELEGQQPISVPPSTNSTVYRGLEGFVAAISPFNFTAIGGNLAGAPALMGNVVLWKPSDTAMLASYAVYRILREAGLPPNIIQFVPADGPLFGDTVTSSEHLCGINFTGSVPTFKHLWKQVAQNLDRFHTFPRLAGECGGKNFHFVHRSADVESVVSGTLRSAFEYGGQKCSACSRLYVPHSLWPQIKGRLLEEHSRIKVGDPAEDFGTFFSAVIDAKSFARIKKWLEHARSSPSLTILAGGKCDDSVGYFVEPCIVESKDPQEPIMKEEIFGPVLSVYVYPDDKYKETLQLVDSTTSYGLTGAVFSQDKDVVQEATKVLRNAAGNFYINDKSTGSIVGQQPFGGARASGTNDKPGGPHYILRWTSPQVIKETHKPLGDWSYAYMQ
Description: as §1

With CC(C)CCn1c(CN2CCN(C(=O)c3ccco3)CC2)nc2c1c(=O)n(C)c(=O)n2C [CM026] the “effect on ALDH5A1” value [1] was “no effect” and the “effect on ALDH4A1” value [2] was “no effect”.
